Legend:
U2OS [1] = assay: drug sensitivity score (DSS) for viability; higher = more toxic; extreme values may be limits of the assay; details: 72 h
HepG2 [2] = assay: as above; details: 72 h
Vero E6 [3] = assay: as above; details: 72 h
Calu-3 [4] = assay: as above; details: 72 h
Caco-2 [5] = assay: as above; details: 72 h
U2OS [6] = assay: relative viability EC50 (midpoint between 100% and the lowest measured viability); higher = less toxic; details: 72 h
HepG2 [7] = assay: as above; details: 72 h
Vero E6 [8] = assay: as above; details: 72 h
Calu-3 [9] = assay: as above; details: 72 h
Caco-2 [10] = assay: as above; details: 72 h
U2OS [11] = assay: cell viability relative to DMSO; higher = less toxic; details: 72 h
HepG2 [12] = assay: as above; details: 72 h
Vero E6 [13] = assay: as above; details: 72 h
Calu-3 [14] = assay: as above; details: 72 h
Caco-2 [15] = assay: as above; details: 72 h
[16] = tested on: A549-ACE2 infected with SARS-CoV-2; assay: cell count relative to DMSO; higher = less toxic; details: 24 h
A549-ACE2 [17] = assay: phospholipidosis EC50; higher = less potent phospholipidosis inducer
[18] = tested on: A549-ACE2 infected with SARS-CoV-2; assay: SARS-CoV-2 infection rate relative to DMSO; higher = more infection; details: 24 h
A549-ACE2 [19] = assay: drug-induced phospholipidosis relative to tamoxifen; higher = more phospholipidosis
[20] = tested on: A549-ACE2 infected with SARS-CoV-2; assay: morphology score (similarity to uninfected cells); higher = more like uninfected cells; details: 24 h

CNC(=S)C1(c2ccccn2)CCCS1 (configuration not stated) [picartamide]
Details | drug sensitivity score | relative viability EC50 [µM]
Caco-2 [5] | 0 | –
Caco-2 [10] | – | > 10
Calu-3 [4] | 0 | –
Calu-3 [9] | – | > 10
HepG2 [2] | 0 | –
HepG2 [7] | – | > 10
U2OS [1] | 0 | –
U2OS [6] | – | > 10
Vero E6 [3] | 0 | –
Vero E6 [8] | – | > 10

cell viability [%]
Details | Caco-2 [15] | Calu-3 [14] | HepG2 [12] | U2OS [11] | Vero E6 [13]
1 nM | 94.1 | 96.9 | 98.3 | 99.5 | 103
10 nM | 96.8 | 93 | 93.6 | 104 | 96.5
100 nM | 92.9 | 102 | 103 | 96.2 | 106
1000 nM | 95.1 | 106 | 99.6 | 99.4 | 101
10000 nM | 99.4 | 106 | 97.8 | 106 | 93.7

Cc1cccc(C)c1NC(=O)C1CCCCN1C (configuration not stated) [mepivacaine]
Details | drug sensitivity score | relative viability EC50 [µM]
Caco-2 [5] | 0 | –
Caco-2 [10] | – | > 10
Calu-3 [4] | 0 | –
Calu-3 [9] | – | > 10
HepG2 [2] | 0 | –
HepG2 [7] | – | > 10
U2OS [1] | 0 | –
U2OS [6] | – | > 10
Vero E6 [3] | 0 | –
Vero E6 [8] | – | > 10

cell viability [%]
Details | Caco-2 [15] | Calu-3 [14] | HepG2 [12] | U2OS [11] | Vero E6 [13]
1 nM | 92.1 | 89.7 | 96.8 | 98 | 96.3
10 nM | 81.4 | 97.8 | 107 | 95.8 | 91.4
100 nM | 102 | 93.9 | 105 | 99.4 | 99.2
1000 nM | 90.6 | 99.6 | 115 | 97.4 | 103
10000 nM | 108 | 103 | 104 | 104 | 107

CCC/N=C1\S/C(=C\c2ccc(OC[C@H](O)CO)c(Cl)c2)C(=O)N1c1ccccc1C [ponesimod]
Details | drug sensitivity score | relative viability EC50 [µM]
Caco-2 [5] | 0.7 | –
Caco-2 [10] | – | > 10
Calu-3 [4] | 0 | –
Calu-3 [9] | – | > 10
HepG2 [2] | 0 | –
HepG2 [7] | – | > 10
U2OS [1] | 0 | –
U2OS [6] | – | > 10
Vero E6 [3] | 0 | –
Vero E6 [8] | – | > 10

cell viability [%]
Details | Caco-2 [15] | Calu-3 [14] | HepG2 [12] | U2OS [11] | Vero E6 [13]
1 nM | 91.2 | 90.5 | 95.8 | 98.5 | 100
10 nM | 100 | 103 | 89.6 | 100 | 94
100 nM | 95.6 | 105 | 99.5 | 100 | 91.5
1000 nM | 99 | 105 | 102 | 101 | 91.5
10000 nM | 79.6 | 108 | 91.6 | 98.4 | 93.7

COc1ccc(-c2ccc3ncc4c(c3c2)n(-c2ccc(N3CCNCC3)c(C(F)(F)F)c2)c(=O)n4C)cn1 [BGT226]
Details | drug sensitivity score | relative viability EC50 [µM]
Caco-2 [5] | 26.8 | –
Caco-2 [10] | – | 0.0397
Calu-3 [4] | 28.4 | –
Calu-3 [9] | – | 0.0321
HepG2 [2] | 22.8 | –
HepG2 [7] | – | 0.107
U2OS [1] | 29.8 | –
U2OS [6] | – | 0.0293
Vero E6 [3] | 21 | –
Vero E6 [8] | – | 0.14

cell viability [%]
Details | Caco-2 [15] | Calu-3 [14] | HepG2 [12] | U2OS [11] | Vero E6 [13]
1 nM | 88.6 | 110 | 110 | 101 | 98
10 nM | 69 | 58.3 | 91.5 | 74.2 | 93.9
100 nM | 35.8 | 29.6 | 50.8 | 22.8 | 52.2
1000 nM | 19.3 | 23.2 | 11.5 | 0.1 | 22.2
10000 nM | 0.6 | 0 | -0.3 | -0.2 | -0.2

CC(C)NCC(O)c1ccc(N)c(C#N)c1 (configuration not stated) [cimaterol]
Details | drug sensitivity score | relative viability EC50 [µM]
Caco-2 [5] | 0 | –
Caco-2 [10] | – | > 10
Calu-3 [4] | 0 | –
Calu-3 [9] | – | > 10
HepG2 [2] | 0 | –
HepG2 [7] | – | > 10
U2OS [1] | 0 | –
U2OS [6] | – | > 10
Vero E6 [3] | 0 | –
Vero E6 [8] | – | > 10

cell viability [%]
Details | Caco-2 [15] | Calu-3 [14] | HepG2 [12] | U2OS [11] | Vero E6 [13]
1 nM | 96 | 102 | 110 | 100 | 105
10 nM | 93.2 | 93.2 | 91.6 | 99.4 | 104
100 nM | 94.2 | 101 | 96.6 | 106 | 96.6
1000 nM | 89.8 | 99.2 | 91.7 | 97 | 103
10000 nM | 102 | 96.6 | 94.1 | 105 | 99.2

O=C1CCC[C@@H]2[C@H]3CCC[N+]4([O-])CCC[C@@H](CN12)[C@@H]34 (some centres not stated) [oxymatrine]
Details | drug sensitivity score | relative viability EC50 [µM]
Caco-2 [5] | 0 | –
Caco-2 [10] | – | > 10
Calu-3 [4] | 0 | –
Calu-3 [9] | – | > 10
HepG2 [2] | 0 | –
HepG2 [7] | – | > 10
U2OS [1] | 0 | –
U2OS [6] | – | > 10
Vero E6 [3] | 0 | –
Vero E6 [8] | – | > 10

cell viability [%]
Details | Caco-2 [15] | Calu-3 [14] | HepG2 [12] | U2OS [11] | Vero E6 [13]
1 nM | 97.1 | 89 | 104 | 97.8 | 102
10 nM | 103 | 93.1 | 97.6 | 106 | 97.5
100 nM | 96.6 | 101 | 98.5 | 98 | 101
1000 nM | 95.5 | 91.7 | 96.3 | 102 | 98.4
10000 nM | 88.3 | 86.9 | 108 | 96.7 | 104

COc1ccc([C@@H]2CC(=O)c3c(O)cc(O[C@@H]4O[C@H](CO)[C@@H](O)[C@H](O)[C@H]4O[C@@H]4O[C@@H](C)[C@H](O)[C@@H](O)[C@H]4O)cc3O2)cc1O [neohesperidin]
Details | drug sensitivity score | relative viability EC50 [µM]
Caco-2 [5] | 0 | –
Caco-2 [10] | – | > 10
Calu-3 [4] | 0 | –
Calu-3 [9] | – | > 10
HepG2 [2] | 0 | –
HepG2 [7] | – | > 10
U2OS [1] | 0 | –
U2OS [6] | – | > 10
Vero E6 [3] | 0 | –
Vero E6 [8] | – | > 10

cell viability [%]
Details | Caco-2 [15] | Calu-3 [14] | HepG2 [12] | U2OS [11] | Vero E6 [13]
1 nM | 94.5 | 102 | 102 | 96.7 | 98.2
10 nM | 99.5 | 91.1 | 97.8 | 98.8 | 92.8
100 nM | 99.4 | 95.7 | 103 | 97.2 | 93.6
1000 nM | 90.1 | 101 | 99.3 | 96 | 95.9
10000 nM | 99.3 | 102 | 101 | 108 | 104

CC1(N2CCC(n3c([C@@H]4CCCNC4)nc4ccccc43)CC2)CCCCCCC1 [MCOPPB]
Details | SARS-CoV-2 infection rate [%] | cell count [%] | cell viability [%] | morphology score | phospholipidosis EC50 [µM]
A549-ACE2 [17], 24 h | – | – | – | – | 1.64
A549-ACE2 [17], 48 h | – | – | – | – | 3.3
A549-ACE2 [17], 72 h | – | – | – | – | 4.88
Caco-2 [15], 1 nM | – | – | 111 | – | –
Caco-2 [15], 10 nM | – | – | 105 | – | –
Caco-2 [15], 100 nM | – | – | 93.5 | – | –
Caco-2 [15], 1000 nM | – | – | 100 | – | –
Caco-2 [15], 10000 nM | – | – | 89.3 | – | –
Calu-3 [14], 1 nM | – | – | 99.2 | – | –
Calu-3 [14], 10 nM | – | – | 99.8 | – | –
Calu-3 [14], 100 nM | – | – | 91.6 | – | –
Calu-3 [14], 1000 nM | – | – | 99 | – | –
Calu-3 [14], 10000 nM | – | – | 7.3 | – | –
HepG2 [12], 1 nM | – | – | 94 | – | –
HepG2 [12], 10 nM | – | – | 100 | – | –
HepG2 [12], 100 nM | – | – | 99.5 | – | –
HepG2 [12], 1000 nM | – | – | 87.5 | – | –
HepG2 [12], 10000 nM | – | – | 55.1 | – | –
U2OS [11], 1 nM | – | – | 98.6 | – | –
U2OS [11], 10 nM | – | – | 104 | – | –
U2OS [11], 100 nM | – | – | 98.6 | – | –
U2OS [11], 1000 nM | – | – | 100 | – | –
U2OS [11], 10000 nM | – | – | 91.4 | – | –
Vero E6 [13], 1 nM | – | – | 101 | – | –
Vero E6 [13], 10 nM | – | – | 101 | – | –
Vero E6 [13], 100 nM | – | – | 106 | – | –
Vero E6 [13], 1000 nM | – | – | 99 | – | –
Vero E6 [13], 10000 nM | – | – | 98.9 | – | –
[16], 0.3 µM | – | 106 | – | – | –
[16], 3 µM | – | 115 | – | – | –
[16], 10 µM | – | 119 | – | – | –
[16], 30 µM | – | 120 | – | – | –
[18], 0.3 µM | 89 | – | – | – | –
[18], 3 µM | 23 | – | – | – | –
[18], 10 µM | 16 | – | – | – | –
[18], 30 µM | 27 | – | – | – | –
[20], 0.3 µM | – | – | – | 0.38 | –
[20], 3 µM | – | – | – | 0.73 | –
[20], 10 µM | – | – | – | 0.28 | –
[20], 30 µM | – | – | – | -0.07 | –

Details | drug sensitivity score | relative viability EC50 [µM]
Caco-2 [5] | 0 | –
Caco-2 [10] | – | > 10
Calu-3 [4] | 5.3 | –
Calu-3 [9] | – | 3.09
HepG2 [2] | 4.2 | –
U2OS [1] | 0 | –
U2OS [6] | – | > 10
Vero E6 [3] | 0 | –
Vero E6 [8] | – | > 10

drug-induced phospholipidosis [%], A549-ACE2 [19]
Details | 0.3 µM | 0.833333 µM | 3.33333 µM | 6.66667 µM | 10 µM | 30 µM
24 h | 5.09 | 34 | 89.2 | 113 | 138 | 112
48 h | 5.47 | 17.9 | 70.6 | 117 | 145 | 111
72 h | 4.22 | 12.1 | 45 | 98.9 | 137 | 141
